pIC50: −log10 of the molar value.
Molecular target: T1, oxidosqualene cyclase (Rattus norvegicus, UniProt P48450)
T1 construct: Microsomes, prepared by ultracentrifugation of homogenates of rat liver; from tissue; host or cells: rat liver microsomes plus high speed supernatant fraction
T1 sequence (P48450 1-733): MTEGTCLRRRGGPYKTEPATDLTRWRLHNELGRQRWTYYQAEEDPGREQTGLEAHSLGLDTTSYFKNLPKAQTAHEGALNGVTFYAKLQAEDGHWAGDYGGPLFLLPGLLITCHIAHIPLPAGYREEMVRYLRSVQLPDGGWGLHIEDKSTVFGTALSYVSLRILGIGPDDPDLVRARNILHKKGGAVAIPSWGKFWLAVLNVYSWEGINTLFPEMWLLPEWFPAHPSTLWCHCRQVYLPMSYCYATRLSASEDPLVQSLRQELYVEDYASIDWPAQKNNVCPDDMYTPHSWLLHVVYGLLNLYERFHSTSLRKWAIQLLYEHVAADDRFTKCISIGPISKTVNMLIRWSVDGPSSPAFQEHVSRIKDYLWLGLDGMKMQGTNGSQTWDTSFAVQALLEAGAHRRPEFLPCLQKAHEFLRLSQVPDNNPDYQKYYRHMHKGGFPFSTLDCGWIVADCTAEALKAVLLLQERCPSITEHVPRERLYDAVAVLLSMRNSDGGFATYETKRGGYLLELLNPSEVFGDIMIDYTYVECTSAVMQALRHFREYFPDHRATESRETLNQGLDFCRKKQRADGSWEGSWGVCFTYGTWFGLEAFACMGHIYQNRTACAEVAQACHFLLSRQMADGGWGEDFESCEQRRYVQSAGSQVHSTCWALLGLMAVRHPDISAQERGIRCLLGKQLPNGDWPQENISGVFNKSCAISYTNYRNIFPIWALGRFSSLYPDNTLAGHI
Test: Inhibition of cholesterol biosynthesis: oxidosqualene cyclase in rat liver microsomes (TLC or HPLC assay)
Format: biochemical
Conditions: 37°C, 45 minutes, 60µM ³H-squalene, 2.0mM NADPH, 0.01mM FAD, compounds tested at 0.0 to 100.0µM, read-out: Cyclase, IC₅₀
Protocol: The following example illustrates the utility of compounds of formula (1) in inhibiting cholesterol biosynthesis. This example is understood to be illustrative only and is not intended to limit the scope of the present invention in any way. Microsomes, prepared by ultracentrifugation of homogenates of rat liver, are incubated at 37°C for 45 muinutes in the presence of 60µM ³H-squalene, 2.0mM NADPH, 0.01mM FAD, and the high speed supernatant fraction from the microsomal preparation. Blanks, in which NADPH has been omitted, are run simultaneously with the test compounds. Compounds are tested at concentrations of 0.0 to 100.0µM.
• a) TLC Assay: Following incubation, the samples are saponified, standards are added to each sample, and then the reaction products are extracted into hexane. […] Spots containing the reaction products are scraped from the TLC plates and counted for ³H-radioactivity in a scintillation counter. An IC₅₀ for squalene epoxidase and oxidosqualene cyclase is calculated. • b) HPLC Assay: Following incubation, reactions are stopped by the addition of chloroform:methanol, standards are added, then reaction products and standards are extracted into chloroform. […] Chromatographic peaks containing reaction products are monitored for ³H- radioactivity with a flow-through scintillation counter connected in series with the HPLC column. […]

Compound	pIC50
CC(C)CCSCCCCCN1CCCCC1 [Compound A]	4.62
CCSCCN1CCCCC1 [Compound E, 2-(1-piperidyl)ethyl ethyl sulfide]	< 4.00

From patent publication EP0468434B1, “Novel piperidyl ethers and thioethers as inhibitors of cholesterol biosynthesis” (MERRELL DOW PHARMACEUTICALS INC., priority 1990, dated 1992)
